According to PubChem BioAssay AID218 (DTP/NCI, 2004):
Values joined by “and” are separate entries in the source; they are usually repeats but may differ in a detail not shown here. Equal values may be shown once.

Tested on: C57BL/6 mice, Adenocarcinoma 755 sc, tumor weight T/C
Assay: NCI In Vivo Anticancer Drug Screen. Data for tumor model Adenocarcinoma 755 (subcutaneous) in C57BL/6 mice
Conditions: endpoint: mean tumor weight, higher = larger tumour
Procedure: The antitumor activity of compounds was measured in mice bearing transplantable tumors. Survival or tumor size were measured and the results are expressed as the measurement made in the treated group (T) divided by the measurement made in the vehicle treated control group (C). The tumor model used in this assay is Adenocarcinoma 755 (subcutaneous) in C57BL/6 mice

[1] = dose: 16.0 mg/kg/injection, schedule: Q01DX009 (ip), vehicle: saline
[2] = dose: 32.0 mg/kg/injection, schedule: Q01DX009 (ip), vehicle: saline
[3] = dose: 100.0 mg/kg/injection, schedule: Q01DX011 (ip), vehicle: saline
[4] = dose: 50.0 mg/kg/injection, schedule: Q01DX011 (ip), vehicle: saline
[5] = dose: 125.0 mg/kg/injection, schedule: Q01DX011 (ip), vehicle: saline
[6] = dose: 150.0 mg/kg/injection, schedule: Q01DX011 (ip), vehicle: saline
[7] = dose: 6.25 mg/kg/injection, schedule: Q01DX011 (ip), vehicle: saline
[8] = dose: 25.0 mg/kg/injection, schedule: Q01DX011 (ip), vehicle: saline
[9] = dose: 20.0 mg/kg/injection, schedule: Q02DX006 (ip), vehicle: other
[10] = dose: 40.0 mg/kg/injection, schedule: Q02DX006 (ip), vehicle: other
[11] = dose: 15.0 mg/kg/injection, schedule: Q01DX011 (ip), vehicle: saline
[12] = dose: 20.0 mg/kg/injection, schedule: Q01DX011 (ip), vehicle: saline
[13] = dose: 75.0 mg/kg/injection, schedule: Q01DX011 (ip), vehicle: saline
[14] = dose: 10.0 mg/kg/injection, schedule: Q01DX011 (ip), vehicle: saline
[15] = dose: 200.0 mg/kg/injection, schedule: Q01DX011 (ip), vehicle: saline

With `O=C([O][Hg][CH2]C1COC([CH2][Hg][O]C(=O)c2ccccc2)CO1)c1ccccc1` (centres undefined) the T/C [1] was 82 % of control, the T/C [2] was 77 % of control and the T/C (dose: 32.0 mg/kg/injection, schedule: Q01DX010 (ip), vehicle: saline) was 48 % of control.

For `CC(C)Sc1nc(N)nc2nc[nH]c12`, the T/C [3] was 7 % of control.

For `Cn1cnc([N+](=O)[O-])c1SCc1ccccc1`, the T/C [4] was 52 % of control, the T/C [3] was 49 % of control and the T/C [5] was 33 % of control. The T/C [6] was 54 % of control and the T/C (dose: 175.0 mg/kg/injection, schedule: Q01DX011 (ip), vehicle: saline) was 66 % of control.

For `CCc1c(CC(=O)O)c2cc(C)ccc2n1Cc1ccc(Cl)cc1`, the T/C (dose: 1.56 mg/kg/injection, schedule: Q01DX011 (ip), vehicle: saline) was 79 % of control, the T/C (dose: 3.13 mg/kg/injection, schedule: Q01DX011 (ip), vehicle: saline) was 66 % of control and the T/C [7] was 109 % of control. For the same compound, the T/C [8] was 10 % of control and the T/C [4] was 22 % of control.

With `O=C1C(NC(=O)C2CCCCC2)=C(N2CC2)C(=O)C(NC(=O)C2CCCCC2)=C1N1CC1` the T/C [1] was 97 % of control, the T/C [2] was 56 % of control and the T/C (dose: 64.0 mg/kg/injection, schedule: Q01DX009 (ip), vehicle: saline) was 83 % of control.

With `CSc1nc2nc[nH]c2c(=O)[nH]1` the T/C (dose: 50.0 mg/kg/injection, schedule: Q01DX011 (ip), vehicle: carboxymethylcellulose (CMC)) was 112 % of control.

`Cn1ncc2c(N)ncnc21` was tested, and the T/C [9] was 47 % of control and the T/C [10] was 28 % of control.

With `CCCCNc1ncnc2[nH]ncc12` the T/C [11] was 31 % of control, the T/C [12] was 7 % of control and the T/C [8] was 24 % of control.

`CCCCCCCCCNc1ncnc2[nH]ncc12` was tested, and the T/C [4] was 51 % of control and the T/C [3] was 64 % of control.

In the case of `O=C(O)CCCCC1NC(=O)CS1` (centres undefined), the T/C (dose: 225.0 mg/kg/injection, schedule: Q02DX006 (ip), vehicle: water) is reported as 91 % of control and the T/C (dose: 275.0 mg/kg/injection, schedule: Q02DX006 (ip), vehicle: water) is reported as 101 % of control.

With `Clc1ncnc2nc[nH]c12` the T/C (dose: 37.5 mg/kg/injection, schedule: Q01DX011 (ip), vehicle: saline) was 1 % of control.

For `CCCCNc1nc(N(C)C)nc2nc[nH]c12`, the T/C (dose: 37.0 mg/kg/injection, schedule: Q01DX011 (ip), vehicle: saline) was 80 % of control, the T/C [13] was 29 % of control and the T/C (dose: 90.0 mg/kg/injection, schedule: Q01DX011 (ip), vehicle: saline) was 56 % of control. The T/C [5] was 47 % of control.

`CCCNc1ncnc2c1cnn2C` was tested, and the T/C [14] was 46 % of control, the T/C [11] was 32 % of control and the T/C [12] was 13 % of control.

`CCCCn1cnc2c(SSc3ncnc4c3ncn4CCCC)ncnc21` was tested, and the T/C (dose: 3.75 mg/kg/injection, schedule: Q01DX011 (ip), vehicle: saline) was 26 % of control, the T/C (dose: 7.5 mg/kg/injection, schedule: Q01DX011 (ip), vehicle: saline) was 7 % of control and the T/C [11] was 7 % of control. For the same compound, the T/C (dose: 30.0 mg/kg/injection, schedule: Q01DX011 (ip), vehicle: saline) was 6 % of control.

With `Nc1[nH]c(=S)nc2nc[nH]c12` the T/C (dose: 5.0 mg/kg/injection, schedule: Q02DX006 (ip), vehicle: saline) was 46 % of control, the T/C (dose: 6.0 mg/kg/injection, schedule: Q02DX006 (ip), vehicle: saline) was 33 % of control and the T/C (dose: 8.0 mg/kg/injection, schedule: Q02DX006 (ip), vehicle: saline) was 25 % of control.

`S=c1[nH]c(=S)c2[nH]cnc2[nH]1` was tested, and the T/C [3] was 13 % of control and the T/C [15] was 7 % of control.

For `Nc1ncnc2[nH]ncc12`, the T/C (dose: 10.0 mg/kg/injection, schedule: Q02DX006 (ip), vehicle: other) was 28 % of control, the T/C [11] was 7 % of control and 22 % of control and the T/C [12] was 9 % of control. For the same compound, the T/C [9] was 16 % of control and the T/C [10] was 4 % of control.

In the case of `O=[N+]([O-])c1ccc2c(c1)Cc1c-2cc(Br)c(O)c1Br`, the T/C (dose: 62.5 mg/kg/injection, schedule: Q01DX011 (ip), vehicle: saline) is reported as 60 % of control, the T/C [5] is reported as 58 % of control and the T/C (dose: 250.0 mg/kg/injection, schedule: Q01DX011 (ip), vehicle: saline) is reported as 43 % of control. The T/C (dose: 500.0 mg/kg/injection, schedule: Q01DX011 (ip), vehicle: saline) was 33 % of control.

For `Cn1cnc2ncnc(Cl)c21`, the T/C (dose: 75.0 mg/kg/injection, schedule: Q01DX011 (ip), vehicle: carboxymethylcellulose (CMC)) was 183 % of control.

For `Oc1ccc2ccccc2c1N=Nc1ccc(F)cc1`, the T/C [7] was 55 % of control, the T/C (dose: 12.5 mg/kg/injection, schedule: Q01DX011 (ip), vehicle: saline) was 45 % of control and the T/C [8] was 37 % of control. For the same compound, the T/C [4] was 30 % of control and 35 % of control, the T/C [3] was 28 % of control and the T/C [15] was 12 % of control. The T/C (dose: 400.0 mg/kg/injection, schedule: Q01DX011 (ip), vehicle: saline) was 28 % of control.

`c1ccc(Sc2ncnc3nc[nH]c23)cc1` was tested, and the T/C [4] was 15 % of control, the T/C [13] was 14 % of control and the T/C [3] was 5 % of control.

With `CNc1ncnc2c1cnn2C` the T/C (dose: 2.0 mg/kg/injection, schedule: Q01DX011 (ip), vehicle: saline) was 84 % of control, the T/C (dose: 5.0 mg/kg/injection, schedule: Q01DX011 (ip), vehicle: saline) was 89 % of control and the T/C [14] was 120 % of control. The T/C [12] was 36 % of control.

`CCCCCCCCCCCNc1ncnc2[nH]ncc12` was tested, and the T/C [4] was 46 % of control and the T/C [3] was 41 % of control.

`CCc1nc(N)nc(N)c1-c1ccc(Cl)cc1` was tested, and the T/C [4] was 67 % of control.

In the case of `O=c1[nH]c(=O)c2n[nH]nc2[nH]1`, the T/C [13] is reported as 154 % of control and the T/C [6] is reported as 115 % of control.

`NC(=S)N/N=C/c1cccc([N+](=O)[O-])c1` was tested, and the T/C (dose: 75.0 mg/kg/injection, schedule: Q02DX006 (ip), vehicle: saline) was 36 % of control and the T/C (dose: 100.0 mg/kg/injection, schedule: Q02DX006 (ip), vehicle: saline) was 47 % of control.

`S=c1nc[nH]c2nc[nH]c12.[Cd]` was tested, and the T/C (dose: 0.1 mg/kg/injection, schedule: Q01DX011 (ip), vehicle: saline) was 60 % of control, the T/C (dose: 0.2 mg/kg/injection, schedule: Q01DX011 (ip), vehicle: saline) was 76 % of control and the T/C (dose: 0.4 mg/kg/injection, schedule: Q01DX011 (ip), vehicle: saline) was 60 % of control. For the same compound, the T/C (dose: 0.8 mg/kg/injection, schedule: Q01DX011 (ip), vehicle: saline) was 49 % of control.
